According to patent US20240150423A1, “GLP-1 ANALOGUE-MODIFIED DIMERS WITH DIFFERENT CONFIGURATIONS, PREPARATION METHOD THEREOF, AND APPLICATION THEREOF IN TREATMENT OF TYPE II DIABETES” (Nanjing Finepeptide Biopharmaceutical Co.,Ltd, priority 2019, published 2024):
Non-standard residues stand in square brackets, D forms with d. No end group written: not given here. βAib = beta-Aib residue

Each substance was assayed on Normal Kunming (KM) mice (assay: multiple OGTT (mOGTT): hypoglycemic duration after a single administration). Conditions: monomeric peptides, single injection at the same dose (1.126 nmol), subcutaneous.
Format: in vivo
Text: • 1. Methods: Normal Kunming (KM) mice (purchased from Guangdong Animal Center) were used for oral glucose tolerance test (OGTT) to obtain the hypoglycemic activity and durability of drug. […] The blood glucose meter and blood glucose test paper were from Bayer […]. The average blood glucose of each group was used as an evaluation standard: When the average blood glucose of experimental group was higher than that of the NaCl control group for two times, the measurement stopped and the hypoglycemic period compared to the blank control group was the effective duration. • 2. Results • 2.1 single OGTTs: after a single administration, the mice were orally administered glucose once and measured the blood glucose from the tail blood at 0, 10, 20, 40, 60 and 120 min. […] The duration of each monomer group was about 1⁄2-1⁄4 of the duration of its corresponding dimer group. […] Therefore, the 2G3 peptide was selected for treating type II diabetes (T2D) in vivo and subsequent experiments.
For “His-aAib-Glu-Gly-Thr-Phe-Thr-Ser-Asp-Val-Cys-Ser-Tyr-Leu-Glu-Gly-Gln-Ala-Ala-Lys[N-ϵ-(N-α-Palmitoyl-γ-glutamyl)]-Glu-Phe-Ile-Ala-Trp-Leu-Val-Arg-Gly-Arg-Gly-OH (HXEGTFTSDVCSYLEGQAAXEFIAWLVRGRG; αAib; palmitoyl-γ-glutamyl on Lys; C-terminal acid; Sequence is synthesized; (2)..(2) Xaa is aAib; (20)..(20) Xaa is 26Lys[N-e-(N-a-Palmitoyl-g-glutamyl)]; (31)..(31) C-terminal) [G2 series 11]”, the “Hypoglycemic” value was 4 days. “His-aAib-Glu-Gly-Thr-Phe-Thr-Ser-Asp-Val-Ser-Cys-Tyr-Leu-Glu-Gly-Gln-Ala-Ala-Lys[N-ϵ-(N-α-Palmitoyl-L-γ-glutamyl)]-Glu-Phe-Ile-Ala-Trp-Leu-Val-Arg-Gly-Arg-Gly-NH2 (HXEGTFTSDVSCYLEGQAAXEFIAWLVRGRG; Aib; palmitoyl-gamma-Glu on Lys; C-terminal amide; Sequence is synthesized; (2)..(2) Xaa is aAib; (20)..(20) Xaa is 26Lys[N-e-(N-a-palmitoyl-L-g-glutamyl)]; (31)..(31) N-terminal) [G6 series 48]” was tested, and the “Hypoglycemic” value was 7 days. With “His-βAib-Glu-Gly-Thr-Phe-Thr-Ser-Asp-Val-Cys-Ser-Tyr-Leu-Glu-Gly-Gln-Ala-Ala-Lys-Glu-Phe-Ile-Ala-Trp-Leu-Val-Lys-βAib-Arg-NH2 (H[βAib]EGTFTSDVCSYLEGQAAKEFIAWLVK[βAib]R-NH2; also: disulfide-linked homodimer via Cys) [G2 series 17]” the “Hypoglycemic” value was 3 days. In the case of “His-Ala-Glu-Gly-Thr-Phe-Thr-Ser-Asp-Val-Cys-Ser-Tyr-Leu-Glu-Gly-Gln-Ala-Ala-Lys[N-ϵ-(N-α-Palmitoyl)]-Glu-Phe-Ile-Ala-Trp-Leu-Val-Arg-Gly-Arg-Gly-OH (HAEGTFTSDVCSYLEGQAAXEFIAWLVRGRG; palmitoyl on Lys; C-terminal acid; Sequence is synthesized; (20)..(20) Xaa is 26Lys[N-e-(N-a-palmitoyl-L-g-glutamyl)]; (31)..(31) C-terminal) [G4 series 24]”, the “Hypoglycemic” value is reported as 3 days. With “His-aAib-Glu-Gly-Thr-Phe-Thr-Ser-Asp-Val-Ser-Cys-Tyr-Leu-Glu-Gly-Gln-Ala-Ala-Lys[N-ϵ-(N-α-oleoyl)]-Glu-Phe-Ile-Ala-Trp-Leu-Val-Arg-Gly-Arg-Gly-NH2 (HXEGTFTSDVSCYLEGQAAXEFIAWLVRGRG; not fully specified; Aib; oleoyl on Lys side chain; C-terminal amide; Sequence is synthesized; (2)..(2) Xaa is aAib; (20)..(20) Xaa is 26Lys[N-e-(N-a-oleoyl-L-g-glutamyl)]; (31)..(31) N-terminal) [G4 series 36]” the “Hypoglycemic” value was 8 days. For “His-βAla-Glu-Gly-Thr-Phe-Thr-Ser-Asp-Val-Cys-Ser-Tyr-Leu-Glu-Gly-Gln-Ala-Ala-Lys[N-ϵ-(N-α-oleoyl)]-Glu-Phe-Ile-Ala-Trp-Leu-Val-Arg-Gly-Arg-Gly-NH2 (HXEGTFTSDVCSYLEGQAAXEFIAWLVRGRG; β-amino acid; oleoyl on Lys; C-terminal amide; Sequence is synthesized; (2)..(2) Xaa is bAla; (20)..(20) Xaa is 26Lys[N-e-(N-a-oleoyl-L-g-glutamyl)]; (31)..(31) N-terminal) [G4 series 31]”, the “Hypoglycemic” value was 5 days. With “His-aAib-Glu-Gly-Thr-Phe-Thr-Ser-Asp-Val-Cys-Ser-Tyr-Leu-Glu-Gly-Gln-Ala-Ala-Lys[N-ϵ-(N-α-oleoyl)]-Glu-Phe-Ile-Ala-Trp-Leu-Val-Arg-Gly-Arg-Gly-NH2 (HXEGTFTSDVCSYLEGQAAXEFIAWLVRGRG; αAib; oleoyl on Lys; C-terminal amide; Sequence is synthesized; (2)..(2) Xaa is aAib; (20)..(20) Xaa is 26Lys[N-e-(N-a-oleoyl-L-g-glutamyl)]; (31)..(31) N-terminal) [G4 series 29]” the “Hypoglycemic” value was 7 days. With “His-βAla-Glu-Gly-Thr-Phe-Thr-Cys-Asp-Val-Ser-Ser-Tyr-Leu-Glu-Gly-Gln-Ala-Ala-Lys[N-ϵ-(N-α-oleoyl-L-γ-glutamyl)]-Glu-Phe-Ile-Ala-Trp-Leu-Val-Arg-Gly-Arg-Gly-NH2 (HXEGTFTCDVSSYLEGQAAXEFIAWLVRGRG; beta-amino acid; oleoyl-gamma-Glu on Lys; C-terminal amide; Sequence is synthesized; (2)..(2) Xaa is bAla; (20)..(20) Xaa is 26Lys[N-e-(N-a-oleoyl-L-g-glutamyl)]; (31)..(31) N-terminal) [G8 series 68]” the “Hypoglycemic” value was 4 days. With “His-βAla-Glu-Gly-Thr-Phe-Thr-Ser-Asp-Val-Ser-Cys-Tyr-Leu-Glu-Gly-Gln-Ala-Ala-Lys[N-ϵ-(N-α-Palmitoyl-L-γ-glutamyl)]-Glu-Phe-Ile-Ala-Trp-Leu-Val-Lys[N-ϵ-(N-α-Palmitoyl-L-γ-glutamyl)]-Gly-Arg-Gly-NH2 (HXEGTFTSDVSCYLEGQAAXEFIAWLVXGRG; not fully specified; beta-amino acid; two palmitoyl-gamma-Glu on Lys; amide; Sequence is synthesized; (2)..(2) Xaa is bAla; (20)..(20) Xaa is 26Lys[N-e-(N-a-palmitoyl-L-g-glutamyl)]; (28)..(28) Xaa is 26Lys[N-e-(N-a-palmitoyl-L-g-glutamyl)]; (31)..(31) N-terminal) [G5 series 44]” the “Hypoglycemic” value was 2 days. In the case of “His-βAla-Glu-Gly-Thr-Phe-Thr-Ser-Asp-Val-Ser-Cys-Tyr-Leu-Glu-Gly-Gln-Ala-Ala-Lys[N-ϵ-(N-α-oleoyl)]-Glu-Phe-Ile-Ala-Trp-Leu-Val-Arg-Gly-Arg-Gly-NH2 (HXEGTFTSDVSCYLEGQAAXEFIAWLVRGRG; beta-amino acid; oleoyl on Lys side chain; C-terminal amide; Sequence is synthesized; (2)..(2) Xaa is bAla; (20)..(20) Xaa is 26Lys[N-e-(N-a-oleoyl-L-g-glutamyl)]; (31)..(31) N-terminal) [G4 series 39]”, the “Hypoglycemic” value is reported as 5 days. “His-Ala-Glu-Gly-Thr-Phe-Thr-Ser-Asp-Val-Ser-Cys--Tyr-Leu-Glu-Gly-Gln-Ala-Ala-Lys[N-ϵ-(N-α-oleoyl-L-γ-glutamyl)]-Glu-Phe-Ile-Ala-Trp-Leu-Val-Arg-Gly-Arg-Gly-NH2 (HAEGTFTSDVSCYLEGQAAXEFIAWLVRGRG; oleoyl-γ-glutamyl on Lys; C-terminal amide; Sequence is synthesized; (20)..(20) Xaa is 26Lys[N-e-(N-a-oleoyl-L-g-glutamyl)]; (31)..(31) N-terminal) [G3 series 23]” was tested, and the “Hypoglycemic” value was 7 days. In the case of “His-Ala-Glu-Gly-Thr-Phe-Thr-Cys-Asp-Val-Ser-Ser-Tyr-Leu-Glu-Gly-Gln-Ala-Ala-Lys[N-ϵ-(N-α-Palmitoyl-L-γ-glutamyl)]-Glu-Phe-Ile-Ala-Trp-Leu-Val-Arg-Gly-Arg-Gly-OH (HAEGTFTCDVSSYLEGQAAXEFIAWLVRGRG; palmitoyl-gamma-Glu on Lys; C-terminal acid; Sequence is synthesized; (20)..(20) Xaa is 26Lys[N-e-(N-a-palmitoyl-L-g-glutamyl)]; (31)..(31) C-terminal) [G8 series 56]”, the “Hypoglycemic” value is reported as 1 days. In the case of “His-Ala-Glu-Gly-Thr-Phe-Thr-Ser-Asp-Val-Cys-Ser-Tyr-Leu-Glu-Gly-Gln-Ala-Ala-Lys[N-ϵ-(N-α-Palmitoyl)]-Glu-Phe-Ile-Ala-Trp-Leu-Val-Arg-Gly-Arg-Gly-NH2 (HAEGTFTSDVCSYLEGQAAXEFIAWLVRGRG; palmitoyl on Lys; C-terminal amide; Sequence is synthesized; (20)..(20) Xaa is 26Lys[N-e-(N-a-palmitoyl-L-g-glutamyl)]; (31)..(31) N-terminal) [G4 series 25]”, the “Hypoglycemic” value is reported as 5 days.

Same assay, conditions: single injection at the same dose (1.126 nmol), subcutaneous
In the case of “2G4 series 32: disulfide-linked homodimer of monomer SEQ ID NO: 32 (HAEGTFTSDVSCYLEGQAAXEFIAWLVRGRG; not fully specified; disulfide-linked homodimer; Sequence is synthesized; (20)..(20) Xaa is 26Lys[N-e-(N-a-oleoyl-L-g-glutamyl)]; (31)..(31) C-terminal)”, the “Hypoglycemic duration” value is reported as 13 days. In the case of “2G4 series 38: disulfide-linked homodimer of monomer SEQ ID NO: 38 (HXEGTFTSDVSCYLEGQAAXEFIAWLVRGRG; disulfide-linked homodimer; Sequence is synthesized; (2)..(2) Xaa is bAib; (20)..(20) Xaa is 26Lys[N-e-(N-a-oleoyl-L-g-glutamyl)]; (31)..(31) N-terminal)”, the “Hypoglycemic duration” value is reported as 17 days. “2G8 series 59: disulfide-linked homodimer of monomer SEQ ID NO: 59 (HAEGTFTCDVSSYLEGQAAXEFIAWLVRGRG; disulfide-linked homodimer; Sequence is synthesized; (20)..(20) Xaa is 26Lys[N-e-(N-a-oleoyl-L-g-glutamyl)]; (31)..(31) N-terminal)” was tested, and the “Hypoglycemic duration” value was 5 days. With “2G3 series 22: disulfide-linked homodimer of monomer SEQ ID NO: 22 (HAEGTFTSDVSCYLEGQAAXEFIAWLVRGRG; not fully specified; disulfide-linked homodimer; Sequence is synthesized; (20)..(20) Xaa is 26Lys[N-e-(N-a-palmitoyl-L-g-glutamyl)]; (31)..(31) N-terminal)” the “Hypoglycemic duration” value was 16 days.
